Patent publication US20250179061A1 (SIRONAX LTD., priority 2022, published 2025)

These molecules were tested on HT-29 cells (assay: HT-29 necroptosis cell viability assay (TNF-α/SMAC mimetic/zVAD-FMK, CellTiter-Glo)). Conditions: Homo sapiens, HT-29, HT-29 cells, necroptosis induced by TNF-α/SMAC mimetic/zVAD-FMK, CellTiter-Glo; read-out: Activity (IC50 class).
Format: cell-based
Procedure: Compounds 1-702 of the disclosure were tested for biological activity, following the experimental procedures described below.
• Cell line: HT-29 (ATCC® HTB-38™) • Culture medium: McCOY's 5A, Gibco, Cat No. 16600-082 • FBS, Gibco, Cat No. 10099-141 C • Trypsin: Gibco, Cat No. 25200-056 • DMSO: Sigma, Cat No. 67-68-5, 1L • Assay plate: Corning #3903 • Compound dilution plate: Corning #3357 • Inducers: TNFα, GenScript, Cat No. Z01001-50, • SmacM, Cat. No., HY-15989, MedChemExpress (MCE) • Z_VAD FMK, TargetMol, T6013 • Cell Titer-Glo® Luminescent Cell Viability Assay Kit: Promega, Cat No. G7573 • EnVision: PerkinElmer, 2105-0010
• 1. HT-29 cells were checked every day to make sure that they were healthy and growing as expected. They were subjected to sub-culturing when they were approximately 80% confluent. • 2. The culture medium, McCOY's 5A medium (Gibco, Cat No. 16600-082) with 10% fetal bovine serum or FBS (Gibco, Cat No. 10099-141C), was pre-warmed in a 37° C. water bath for at least 30 min. • 3. When the cells had reached a desired level of confluency of 80% in a T75 flask, the medium was aspirated, and the cells were washed with warm phosphate buffered saline or PBS two times. • 4. 2-3 ml fresh warm trypsin (Gibco, Cat No. 25200-056) solution was added to the washed cells. The flask with the cells was transferred to a 37° C. incubator. • 5. After 5 minutes, the side of the flask was tapped, and the flask was examined under a microscope for detachment of the cells to the flask. If necessary, the cells were kept in the incubator for an additional 5-10 minutes, with occasional tapping, until lifting was complete. • 6. The trypsin reaction was neutralized by transferring 6-9 ml cell culture medium to sterile 15 ml conical tubes, and by centrifuging the cell culture at 300×g for 7 minutes to pellet the cells (supernatant decanted). • 7. The cells were resuspended in fresh cell culture medium and the cell counting was performed using a hemocytometer. • 8. 100 μl of the resuspended cell culture medium containing ˜5,000 cells were transferred into each well of the sterile 96-well cell culture plate (Corning 3903) and cultured overnight at 37° C. with 5% CO2.
• 1. All test compounds were dissolved in DMSO (Dimethyl sulfoxide) to create a 20 mM stock. • 2. 3 μl of 20 mM stock of each compound was mixed with 27 μl DMSO, and the compound solution was further diluted at a titration ratio of 1:3 (20 μl compound solution+40 μl DMSO) till the 10 points end. • 3. All culture medium was removed from assay plates filled with HT-29 cell cultures. The cells were then washed with 1 PBS, and resuspsended in fresh, FBS-free McCOY's 5A medium containing a cocktail of TNF-α (10 ng/ml), a SMAC mimetic compound (6 μM) and Z-VAD-fluoromethylketone or zVAD-FMK (10 μM) to stimulate the HT-29 cells to increase RIP1 kinase levels and necroptosis. • 4. 0.5 μL of the diluted compound solution was added to the corresponding 96-well assay plates. • 5. The assay plates were incubated for 20 hours at 37° C. with 5% CO2.
• 1. The CellTiter-Glo® Luminescent Cell Viability Assay was employed to detect the ATP levels of viable HT-29 cells. • 2. The CellTiter-Glo® buffer and the lyophilized substrate were equilibrated to room temperature prior to use. • 3. The CellTiter-Glo® substrate was resuspended with CellTiter-Glo® buffer, then mixed by gently vortexing to obtain a homogeneous solution. • 4. 20 μl of the enzyme/substrate mixture was transferred by multi-channel pipetting into 96-well assay plates. • 5. The assay plates were placed on an orbital shaker and the contents were shaken for 3 minutes to induce cell lysis. • 6. The assay plates were incubated at room temperature for 10 minutes to stabilize the luminescent signal. • 7. The luminescence signals were read and recorded with EnVision. • 8. The geometric mean IC50 values were calculated from 10 points response dose with duplicates. […]
With `Cc1ncsc1OC1CCC(n2nc3n(c2=O)[C@H](c2ccccc2)CC3)CC1` (single isomer, unassigned) [Example 636] the IC50 was 100 to 1000 nM. Work on `Cc1nc(C(N)=O)sc1Oc1ncc(-n2nc3n(c2=O)[C@H](c2ccccc2)CC3)cc1F` (single isomer, unassigned) [Example 638] yielded an IC50 of under 100 nM. For `Cc1nc(C(N)=O)sc1Oc1ncc(-n2nc3n(c2=O)[C@@H](c2ccccc2)CC3)cc1F` (single isomer, unassigned) [Example 639], the IC50 was 100 to 1000 nM. Molecule `Cc1nc(C(N)=O)sc1Oc1ncc(-n2nc3n(c2=O)[C@H](c2ccccc2)CC3)cc1Cl` (single isomer, unassigned) [Example 640] has an IC50 of under 100 nM. For `Cc1nc(C(N)=O)sc1Oc1ncc(-n2nc3n(c2=O)[C@@H](c2ccccc2)CC3)cc1Cl` (single isomer, unassigned) [Example 641], the IC50 was 1000 to 10000 nM. Work on `Cc1nc(C(N)=O)sc1Oc1ccc(-n2nc3n(c2=O)[C@H](c2ccc(F)cc2)CC3)cc1F` (single isomer, unassigned) [Example 668] yielded an IC50 of under 100 nM. `Cc1nc(C(N)=O)sc1Oc1ccc(-n2nc3n(c2=O)[C@@H](c2ccc(F)cc2)CC3)cc1F` (single isomer, unassigned) [Example 669] gave an IC50 of 1000 to 10000 nM. In the case of `NC(=O)c1ncc(Oc2ccc(-n3nc4n(c3=O)[C@H](c3ccccc3)CC4)cc2F)s1` (single isomer, unassigned) [Example 670], the IC50 is reported as under 100 nM.

Same assay, conditions: Homo sapiens, HT-29, HT-29 necroptosis cell viability assay; class symbols for IC50; read-out: Activity
`Cc1nc(C(C)O)sc1Oc1ccc(-n2nc3n(c2=O)[C@H](c2ccccc2)CC3)cc1F` (single isomer, unassigned) [Example 149] showed an IC50 of under 100 nM. With `Cc1nc([C@@H](C)O)sc1Oc1ccc(-n2nc3n(c2=O)[C@H](c2ccccc2)CC3)cc1F` (single isomer, unassigned) [Example 150] the IC50 was under 100 nM. Work on `Cc1nc([C@H](C)O)sc1Oc1ccc(-n2nc3n(c2=O)[C@H](c2ccccc2)CC3)cc1F` (single isomer, unassigned) [Example 151] yielded an IC50 of under 100 nM. Molecule `Cc1nc(C(=O)N2CCOCC2)sc1Oc1ccc(-n2nc3n(c2=O)[C@H](c2ccccc2)CC3)cc1F` (single isomer, unassigned) [Example 601] has an IC50 of under 100 nM. `Cc1nc(C(=O)NC2CCOCC2)sc1Oc1ccc(-n2nc3n(c2=O)[C@H](c2ccccc2)CC3)cc1F` (single isomer, unassigned) [Example 602] gave an IC50 of under 100 nM.

Same assay, conditions: Homo sapiens, HT-29, HT-29 necroptosis cell viability, IC50 class symbols; read-out: Activity
Work on `Cc1nc(C(C)O)sc1Oc1ccc(-n2ncn(Cc3c(F)cccc3F)c2=O)cc1` (racemic) [Example 459, 4-(2,6-difluorobenzyl)-2-(4-((2-(1-hydroxyethyl)-4-methylthiazol-5-yl)oxy)phenyl)-2,4-dihydro-3H-1,2,4-triazol-3-one] yielded an IC50 of under 100 nM. `C[C@H]1[C@@H](O)CN1c1cc(Oc2ccc(-n3nc4n(c3=O)[C@H](c3ccccc3)CC4)cc2F)c(F)cn1` (single isomer, unassigned) [Example 258] showed an IC50 of under 100 nM. `Cc1nc([C@H](C)O)sc1Oc1ccc(-n2ncn(Cc3c(F)cccc3F)c2=O)cc1F` (single isomer, unassigned) [Example 460] gave an IC50 of under 100 nM. `Cc1nc([C@@H](C)O)sc1Oc1ccc(-n2ncn(Cc3c(F)cccc3F)c2=O)cc1F` (single isomer, unassigned) [Example 461] gave an IC50 of under 100 nM.

Same assay, conditions: Homo sapiens; HT-29 cells stimulated with TNF-α (10 ng/ml), SMAC mimetic (6 μM) and zVAD-FMK (10 μM); 20 hours; CellTiter-Glo ATP luminescence; geometric mean IC50 from 10 points; read-out: Activity
`Cc1ncsc1Oc1ccc(-n2nc3n(c2=O)[C@H](c2ccccc2)CC3)cc1F` (single isomer, unassigned) [Example 3] showed an IC50 of under 100 nM. With `Cc1ncsc1Oc1ccc(-n2nc3n(c2=O)[C@@H](c2ccccc2)CC3)cc1F` (single isomer, unassigned) [Example 4] the IC50 was under 100 nM. `Cc1nc(C(N)=O)sc1Oc1ccc(-n2nc3n(c2=O)[C@H](c2ccccc2)CC3)cc1F` (single isomer, unassigned) [Example 14] gave an IC50 of under 100 nM. Molecule `Cc1nc(C(N)=O)sc1Oc1ccc(-n2nc3n(c2=O)[C@@H](c2ccccc2)CC3)cc1F` (single isomer, unassigned) [Example 15] has an IC50 of 100 to 1000 nM. `Cc1nc(C(N)=O)sc1Oc1ccc(-n2nc3n(c2=O)[C@H](c2ccccc2)CC3)cc1Cl` (single isomer, unassigned) [Example 16] gave an IC50 of under 100 nM. For `Cc1nc(C(N)=O)sc1Oc1ccc(-n2nc3n(c2=O)[C@H](c2ccccc2)CC3)cc1` (single isomer, unassigned) [Example 17], the IC50 was under 100 nM. For `Cc1nc(C(=O)NC2CCOC2)sc1Oc1ccc(-n2nc3n(c2=O)[C@H](c2ccccc2)CC3)cc1F` (single isomer, unassigned) [Example 18], the IC50 was under 100 nM. Work on `Cn1nc(C(N)=O)cc1Oc1ccc(-n2nc3n(c2=O)[C@H](c2ccccc2)CC3)cc1F` (single isomer, unassigned) [Example 30] yielded an IC50 of under 100 nM. `COC(=O)c1nc(C)c(Oc2ccc(-n3nc4n(c3=O)[C@@H](c3ccccc3)CC4)cc2F)s1` (single isomer, unassigned) [Example 35] gave an IC50 of 1000 to 10000 nM. `COC(=O)c1nc(C)c(Oc2ccc(-n3nc4n(c3=O)[C@H](c3ccccc3)CC4)cc2F)s1` (single isomer, unassigned) [Example 36] showed an IC50 of under 100 nM. With `Cn1cc(C(N)=O)nc1Oc1ccc(-n2nc3n(c2=O)[C@H](c2ccccc2)CC3)cc1F` (single isomer, unassigned) [Example 685] the IC50 was 100 to 1000 nM. Work on `CCc1c(Oc2ccc(-n3nc4n(c3=O)[C@H](c3ccccc3)CC4)cc2F)nsc1C(N)=O` (single isomer, unassigned) [Example 686] yielded an IC50 of under 100 nM. For `NC(=O)c1nnc(Oc2ccc(-n3nc4n(c3=O)[C@H](c3ccccc3)CC4)cc2F)s1` (single isomer, unassigned) [Example 687], the IC50 was under 100 nM. Molecule `NC(=O)c1coc(Oc2ccc(-n3nc4n(c3=O)[C@H](c3ccccc3)CC4)cc2F)n1` (single isomer, unassigned) [Example 688] has an IC50 of 100 to 1000 nM. In the case of `Cc1cc(C(N)=O)sc1Oc1ccc(-n2nc3n(c2=O)[C@H](c2ccccc2)CC3)cc1F` (single isomer, unassigned) [Example 689], the IC50 is reported as under 100 nM. Work on `Cc1c(Oc2ccc(-n3nc4n(c3=O)[C@H](c3ccccc3)CC4)cc2F)noc1C(N)=O` (single isomer, unassigned) [Example 690] yielded an IC50 of under 100 nM. With `NC(=O)c1nnc(Oc2ccc(-n3nc4n(c3=O)[C@H](c3ccccc3)CC4)cc2F)o1` (single isomer, unassigned) [Example 691] the IC50 was 1000 to 10000 nM. Work on `Cn1nc(C(N)=O)nc1Oc1ccc(-n2nc3n(c2=O)[C@H](c2ccccc2)CC3)cc1F` (single isomer, unassigned) [Example 692] yielded an IC50 of under 100 nM. Work on `Cc1nc(C(N)=O)n(C)c1Oc1ccc(-n2nc3n(c2=O)[C@H](c2ccccc2)CC3)cc1F` (single isomer, unassigned) [Example 693] yielded an IC50 of under 100 nM. `Cc1cc(C(N)=O)oc1Oc1ccc(-n2nc3n(c2=O)[C@H](c2ccccc2)CC3)cc1F` (single isomer, unassigned) [Example 694] gave an IC50 of under 100 nM. `Cc1c(C(N)=O)noc1Oc1ccc(-n2nc3n(c2=O)[C@H](c2ccccc2)CC3)cc1F` (single isomer, unassigned) [Example 695] was tested, and the IC50 was under 100 nM. Molecule `Cc1oc(C(N)=O)nc1Oc1ccc(-n2nc3n(c2=O)[C@H](c2ccccc2)CC3)cc1F` (single isomer, unassigned) [Example 696] has an IC50 of under 100 nM.
